In patent US7517654B2, “Peptide and a derivative thereof promoting cell adhesion and spreading” (Seoul National University Industry Foundation, priority 2004, dated 2009):

B1: rLG2: recombinant His6-tagged LG2 domain, residues 959-1148 of human laminin α3 chain (protein, listed as Homo sapiens)
chain: KTFNLNTTEVEPCRRRKEESDKNYFEGTGYARVPTQPHAPIPTFGQTIQTTVDRGLLFFAENGDRFISLNIEDGKLMVRYKLNSELPKERGVGDAINNGRDHSIQIKIGKLQKRMWINVDVQNTIIDGEVFDFSTYYLGGIPIAIRERFNISTPAFRGCMKNLKKTSGVVRLNDTVGVTKKCSEDWKLVR
modifications: His6 tag
notes: recombinant His6-tagged LG2 domain, residues 959-1148 of human laminin α3 chain
B2: rLG1: recombinant His6-tagged LG1 domain, residues 782-978 of human laminin α3 chain, expressed in E. coli (protein, listed as Homo sapiens)
chain: RLPNDLEDLKGYTSLSLFLQRPNSRENGGTENMFVMYLGNKDASRDYIGMAVVDGQLTCVYNLGDREAELQVDQILTKSETKEAVMDRVKFQRIYQFARLNYTKGATSSKPETPGVYDMDGRNSNTLLNLDPENVVFYVGGYPPDFKLPSRLSFPPYKGCIELDDLNENVLSLYNFKKTFNLNTTEVEPCRRRKEES
modifications: His6 tag
notes: recombinant His6-tagged LG1 domain, residues 782-978 of human laminin α3 chain, expressed in E. coli
B3: rLG5: recombinant His6-tagged LG5 domain, residues 1522-1713 of human laminin α3 chain (protein, listed as Homo sapiens)
chain: SSSFGVSSCLGGPLEKGIYFSEEGGHVVLAHSVLLGPEFKLVFSIRPRSLTGILIHIGSQPGKHLCVYLEAGKVTASMDSGAGGTSTSVTPKQSLCDGQWHSVAVTIKQHILHLELDTDSSYTAGQIPFPPASTQEPLHLGGAPANLTTLRIPVWKSFFGCLRNIHVNHIPVPVTEALEVQGPVSLNGCPDQ
modifications: His6 tag
notes: recombinant His6-tagged LG5 domain, residues 1522-1713 of human laminin α3 chain
B4: rLG4: recombinant His6-tagged LG4 domain, residues 1352-1555 of human laminin α3 chain (protein, listed as Homo sapiens)
chain: DACSPLPKTQANHGALQFGDIPTSHLLFKLPQELLKPRSQFAVDMQTTSSRGLVFHTGTKNSFMALYLSKGRLVFALGTDGKKLRIKSKEKCNDGKWHTVVFGHDGEKGRLVVDGLRAREGSLPGNSTISIRAPVYLGSPPSGKPKSLPTNSFVGCLKNFQLDSKPLYTPSSSFGVSSCLGGPLEKGIYFSEEGGHVVLAHSVL
modifications: His6 tag
notes: recombinant His6-tagged LG4 domain, residues 1352-1555 of human laminin α3 chain

Key:
HOK-16B cells [1] = test: Cell adhesion assay on coated plates (crystal violet absorbance at 570 nm / cell counting); format: cell-based, human; conditions: 1 h; for cell adhesion activity of synthetic peptides / cell adhesion activity compared to the peptide P4 control: HOK-16B cells; for cell adhesion activity of synthetic peptides: plates coated with 10-50 μg/well peptide, serum-free medium; for cell adhesion activity compared to the peptide P4 control: 10 μg/well truncated or Ala-substituted peptide coating; for cell adhesion activity of rLG proteins: HOK-16B cells on rLG protein-coated plates, compared to BSA control
Experimental: The cell adhesion assay was performed according to a method reported by Okazaki et al. (J. Biol. Chem., 277:37070, 2002). In detail, 24-well culture plates (Nunc, Roskilde, Denmark) were coated with various amounts of rLG proteins at 4° C. overnight. The peptides were also coated on plates by drying overnight. The substrate-coated on the plates were blocked by adding 1% heat-inactivated bovine serum albumin (BSA) in PBS for 1 h at 37° C. and washed twice with PBS. The cells in the Experimental Example 1, detached by 0.05% tyrpsin and 0.53 mM EDTA in PBS and resuspended in culture media, were added (1×10^5 cells/500 μl) to each plate and incubated for 1 h at 37° C. After incubation, unattached cells were removed by rinsing twice with PBS. The attached cells were fixed with 10% formalin in PBS for 15 min, rinsed twice with PBS, and stained with 0.5% crystal violet for 1 h. The plates were gently rinsed with DDW three times and lysed with 2% SDS for 5 min. Absorbance was measured at 570 nm in a Bio-Rad Model 550 microplate reader (BioRad).
The cell adhesion and spreading activities on peptide-coated plates were examined using HOK-16B cells by the same method as Experimental Example 2. 24-well plates were coated with 10, 20, 30, 40 and 50 μg/well peptides P1 to P5, respectively. HOK-16B cells were added to peptide-coated plates and cultured for 1 h in serum-free medium for 1 hr. After the unbound cells were washed off, adherent cells were fixed and stained with crystal violet, and then the stained cells were analyzed. Absorbance was measured at 570 nm in a microplate reader. BSA and the rLG3 were used as negative control and positive control, respectively.
It was observed that peptide P4 promotes strong cell adhesion and spreading activities and binds to integrin α3β1 in the Example 4. Therefore, to determine the biologically active core sequences in peptide P4, five synthetic peptides (P4 D-I to P4 D-V), which are C-terminal truncated peptides from the peptide P4, and six synthetic peptides (P4 D-N1 to P4 D-N6), which are N-terminal truncated peptides from the peptide P4 were prepared (FIG. 6A) and examined for HOK-16B cell adhesion and spreading activities on peptide-coated plates by the present inventors. 24-well plates were coated with 10 μg/well C-terminal truncated peptides or N-terminal truncated peptides, and HOK-16B cells were added to the plates, and then cultured in serum-free medium for 1 hr. After the unbound cells were washed off, the adherent cells were fixed to stain with crystal violet, and the stained cells were analyzed. Absorbance was measured at 570 nm in a microplate reader. Peptide P4 and BSA were used as the positive and negative controls, respectively.
24-well plates were coated with 10 μg/well peptides, and HOK-16B cells were added to the plates, and then cultured in serum-free medium for 1 hr. After the unbound cells were washed off, the adherent cells were fixed to stain with crystal violet, and the stained cells were analyzed. Peptide P4 and BSA were used as the positive and negative controls, respectively. The results were expressed as mean ±SD of the four independent experiments.

HOK-16B cells [2] = test: Cell spreading activity assay on coated plates; format: cell-based, human; conditions: for cell spreading activity compared to the peptide P4 control: HOK-16B cells, 10 μg/well truncated or Ala-substituted peptide coating, 1 h; for cell spreading activity: HOK-16B cells on rLG protein- or peptide P1-P5-coated plates
Experimental: To identify spreading cells, attached cells were fixed with 10% formalin in PBS for 15 min, rinsed twice with PBS, and stained with 0.005% crystal violet for 1 h. The plates were then gently rinsed with DDW. To ensure a representative count, each plate was divided into quarters, two fields per quarter were photographed using an Olympus BX51 microscope at 100× magnification. Cells that had adopted a flattened, polygonal shape, with filopodia-and lamellipodia-like extensions were considered to be spreading cells. In contrast, cells that resisted being washed and remained tethered to the plate surface were considered to be non-spreading cells.
To examine the adhesion activity of peptide P4 in detail, the inventors examined whether the adherent cells were tethered to the substratum or spread over the substratum. The BSA and rLG3 were used as the negative control and positive control, respectively, the percentage of cells displaying a spreading morphology was quantified by dividing the number of spreading cells by the total number of bound cells.

| Molecule | cell adhesion activity of synthetic peptides (HOK-16B cells [1]) | cell adhesion activity compared to the peptide P4 control (HOK-16B cells [1]) | cell spreading activity (HOK-16B cells [2]) | cell adhesion activity of rLG proteins (HOK-16B cells [1]) | also measured |
| --- | --- | --- | --- | --- | --- |
| P2: 12-mer peptide, residues 1297-1308 of SEQ ID NO: 2 (SLKRDVSLGGCS; listed as Homo sapiens) | no adhesion activity |  |  |  |  |
| P3: 12-mer peptide, residues 1305-1316 of SEQ ID NO: 2 (GGCSLNKPPFLM; listed as Homo sapiens) | no adhesion activity |  |  |  |  |
| peptide P1: 12-mer peptide, residues 1293-1304 of human laminin α3 chain SEQ ID NO: 2; control peptide (LTSNSLKRDVSL; listed as Homo sapiens) | no adhesion activity |  |  |  |  |
| peptide P4 D-I: peptide P4 with a deletion of the C-terminal Arg residue (PPFLMLLKGST) |  | significantly lower cell adhesion activity than the peptide P4 control |  |  |  |
| peptide P4 D-N1: peptide P4 with a deletion of one of the N-terminal two Pro residues (PFLMLLKGSTR) |  | did not show a significantly lower cell adhesion and spreading activities |  |  | cell spreading activity compared to the peptide P4 control (HOK-16B cells [2]): did not show a significantly lower cell adhesion and spreading activities |
| peptide P4 D-N2: peptide P4 with deletions of the N-terminal two Pro residues (FLMLLKGSTR) |  | showed a significantly lower cell adhesion and spreading activities |  |  | cell spreading activity compared to the peptide P4 control (HOK-16B cells [2]): showed a significantly lower cell adhesion and spreading activities |
| peptide P4-S1: peptide P4 in which the 8th Lys of SEQ ID NO: 1 is replaced by Ala (PPFLMLLAGSTR) |  | unaffected |  |  | cell spreading activity compared to the peptide P4 control (HOK-16B cells [2]): unaffected |
| peptide P5: 12-mer peptide, residues 1321-1332 of SEQ ID NO: 2 (STRFNKTKTFRI; listed as Homo sapiens) | very weak dose-dependent adhesion activity at concentrations ≧25 μg/well |  |  |  |  |
| B1 |  |  | minimal cell spreading | marginal adhesion activity |  |
| B2 |  |  | minimal cell spreading | marginal adhesion activity |  |
| B3 |  |  | minimal cell spreading | marginal adhesion activity |  |
| B4 |  |  | minimal cell spreading | marginal adhesion activity |  |
